Experimental findings from the METLIN SMRT retention time set (Domingo-Almenara et al. 2019) are described below.

The data set is described as follows: gradient 5% acetonitrile 3 min, to 50% in 2 min, to 85% in 15 min, held 3 min, 100 µL/min. The following applies: column: Zorbax Extend-C18 2.1 x 50 mm; eluents: water / acetonitrile, 0.1% formic acid. Put shortly: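 Retention times come from adduct peaks that were picked computationally and then checked by hand. The standards, pure and pooled in mixtures of ~100 molecules, were run on a Zorbax Extend-C18 column (2.1 × 50 mm, 1.8 μm) at 100 μL/min with water and acetonitrile, each with 0.1% formic acid. Detection was by quadrupole time-of-flight mass spectrometry in positive and negative ionization mode, with a dead volume of 40 μL and a dwell volume of 900 μL.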
In turn, `Cc1ccc(N2C(=O)CN(S(C)(=O)=O)CC2(C)C(=O)NCc2ccc(F)cc2)cc1Cl` (centres undefined) returned an RP-LC retention time of 877 s.

The compound `Cc1nc2cccnc2n1C1CCN(C(=O)Nc2ccccc2Br)CC1` yielded an RP-LC retention time of 637 s.

On to `Cc1cc2c(c(=O)n(-c3ccc(F)cc3)c(=O)n2CC(=O)Nc2ccc(C(F)(F)F)cc2)n1C`, for which the RP-LC retention time was 942 s.

As for `O=C(NCCN1CCOC(c2ccccc2)C1)c1ccc(Cl)c(Cl)c1` (centres undefined), the RP-LC retention time amounted to 610 s.

Consider `CN(C)S(=O)(=O)c1ccc(-c2nnc(C(=O)NCc3ccc(F)c(Cl)c3)o2)cc1`, for which the RP-LC retention time stood at 898 s.

Compound `O=C(CN1CCN(Cc2ccccc2)C1=O)NCC1CCCCC1` displayed an RP-LC retention time of 682 s.

As to `Cc1cc(C)c(NC(=O)Cn2nc3n(c2=O)CCCC3)c(C)c1`, the RP-LC retention time was 684 s.

Consider `Cc1cc(N(C)C)nc(N2CCN(S(=O)(=O)c3ccc(Br)cc3)CC2)n1`, for which the RP-LC retention time came to 733 s.

Regarding `CCc1nc(-n2cccc2)sc1C(=O)Nc1ccc(OC)c(OC)c1`, the RP-LC retention time is 965 s.

`Cc1cccc2c(C(N)=O)c3c(nc12)CCC3` returned an RP-LC retention time of 560 s.

Consider `Cc1nc(-c2csc(S(=O)(=O)N3CCC(C(=O)NC4CCCC4)CC3)c2)no1`, for which the RP-LC retention time is 826 s.

As to `O=C(CC1CCCC1)N1CCN(c2nnc3ccc(C(F)(F)F)cn23)CC1`, the RP-LC retention time was 797 s.

With `COc1cccc(NS(=O)(=O)c2cc3n(c2)CCN(C)C3=O)c1`, the RP-LC retention time came to 674 s.

The compound `CC1=C(C(=O)N2CCOCC2)C(c2ccc(Br)cc2)C2=C(CCCC2=O)N1` (centres undefined) gave an RP-LC retention time of 670 s.

As for `CN(CCc1noc(-c2ccccc2)n1)C(=O)NCCc1ccccc1`, the RP-LC retention time came to 896 s.

Consider `Cc1ccc2nc(CNC(=O)Cn3nc(C(=O)N4CCCC4)c4ccccc43)[nH]c2c1`, for which the RP-LC retention time came to 600 s.

`CCCNC(=O)C1CCN(S(=O)(=O)c2cc(C(=O)N3CCCCCC3)cs2)CC1` had an RP-LC retention time of 783 s.

Compound `CCCNC(=O)C1CCCN(c2ccc(SCC(=O)Nc3ccc(C(F)(F)F)cc3)nn2)C1` (centres undefined) returned an RP-LC retention time of 690 s.

`CSc1ccc(-c2nc3cc(C)ccn3c2Nc2ccc(Cl)cc2)cc1` displayed an RP-LC retention time of 840 s.

For the compound `COc1cc(OC)cc(C(=O)N2CCC3(CC2)NC(=O)c2ccc(F)cc2N3C)c1`, the RP-LC retention time came to 734 s.

As to `O=c1c2cc(-c3ccccc3)nn2ccn1Cc1noc(CN2CCc3ccccc3C2)n1`, the RP-LC retention time was determined as 818 s.

The compound `CCc1ccc(NS(=O)(=O)c2cc(-c3c(CC)noc3NC(C)=O)ccc2C)cc1` came in with an RP-LC retention time of 886 s.

As for `COc1ccc(OC)c2sc(NC(=O)c3ccc(Cl)s3)nc12`, the RP-LC retention time is 990 s.

The compound `O=C(NCc1cccnc1)c1cc(N2CCCC2)n2nccc2n1` returned an RP-LC retention time of 534 s.

`Cc1ccc(CC(=O)Nc2ccc(-c3nc(Cn4nc(C)c(C)c4C)c(C)o3)cc2)cc1` showed an RP-LC retention time of 998 s.

`Cc1nn(-c2ccc(-c3ccccc3)nn2)c(C)c1S(=O)(=O)N1CCN(C2CCCCC2)CC1` came in with an RP-LC retention time of 733 s.

Regarding `Cc1ccc(CNC(=O)CN2C(=O)C3CCCN3C(=O)c3cccc(C)c32)cc1` (centres undefined), the RP-LC retention time is 736 s.

Compound `Cc1noc(C)c1S(=O)(=O)N1CC(N(C)Cc2cccnc2)C1` showed an RP-LC retention time of 594 s.

In turn, `CCCCNC(=O)c1sc2ncn(CC(=O)N3CC(C)CC(C)C3)c(=O)c2c1C` (centres undefined) showed an RP-LC retention time of 890 s.

On to `Cc1ccc(-c2nc(-c3ccc(-n4ccnc4)nc3)no2)cc1`, for which the RP-LC retention time amounted to 794 s.

`Cc1nc(Cn2cccc2C(=O)Nc2ccc(C)c(F)c2)no1` had an RP-LC retention time of 889 s.

As for `Cc1nnc(N2CCC(C(=O)N3CCN(C)CC3)CC2)c2nn(-c3ccccc3)c(C)c12`, the RP-LC retention time amounted to 573 s.

Turning to `O=C(Nc1nnc(C2CCCCC2)s1)C1CCN(C(=O)c2ccccc2)CC1`, the RP-LC retention time came out at 789 s.

In turn, `CCS(=O)(=O)N1CCCc2cc(C(=O)NCCCOC)ccc21` displayed an RP-LC retention time of 700 s.

`CCN(CCNC(=O)CCc1cc2cc(OC)ccc2[nH]c1=O)Cc1ccccc1` gave an RP-LC retention time of 626 s.

`CCS(=O)(=O)Nc1ccc(OCc2nnc(-c3ccccc3)o2)cc1` came in with an RP-LC retention time of 804 s.

`COc1ccc(Cl)cc1NC(=O)Cn1ncc2c(N3CCN(c4ccccn4)CC3)ncnc21` registered an RP-LC retention time of 642 s.

On to `Cc1cc(C)c(C(=O)N2CCC(CC(=O)NC3CCCCCC3)CC2)[nH]1`, for which the RP-LC retention time worked out at 800 s.

Compound `CCOC(=O)c1noc2nc(C)nc(N3CCN(c4cccc(Cl)c4)CC3)c12` came in with an RP-LC retention time of 1220 s.

`Cc1cccc(NC(=O)Cn2nc(N(C)C)c3ccccc3c2=O)c1C` showed an RP-LC retention time of 849 s.

As to `CCOc1ccc(CCNC(=O)C2CCCN(C(=O)c3cc4sccc4n3CC)C2)cc1OCC` (centres undefined), the RP-LC retention time worked out at 951 s.

Take `COc1ccc(CC(C)(O)CNC(=O)c2cc(C)oc2C)cc1` (centres undefined): the RP-LC retention time was 739 s.

The compound `CN(Cc1ccccc1)Cc1nc(-c2ccc(N3CCSCC3)nc2)no1` gave an RP-LC retention time of 837 s.

In the case of `COc1ccccc1N1CCN(CCN2C(=O)CC3(CCCC3)CC2=O)CC1`, the RP-LC retention time came out at 733 s.

Consider `CCn1nccc1-c1cccc(-c2noc(-c3cnccn3)n2)c1`, for which the RP-LC retention time is 883 s.

`CCOc1cc(C(=O)Nc2cc(=O)n(C)c(=O)n2C)cc(OCC)c1OCC` displayed an RP-LC retention time of 691 s.

For `Cc1ccc(C(=O)NC2CCN(c3cc(-c4cccs4)[nH]n3)C2)cc1F` (centres undefined), the RP-LC retention time was 798 s.

`Cc1cc(C)cc(NC(=O)c2cnn3c2CCCC3)c1` displayed an RP-LC retention time of 603 s.

`Cc1ccsc1C(=O)N1CCC2(CC1)CC(OCC1CC1)CCO2` (centres undefined) displayed an RP-LC retention time of 851 s.

On to `CCOC(=O)c1cccc(N2C=C(C#N)S(=O)(=O)c3cc(F)ccc32)c1`, for which the RP-LC retention time was 937 s.

Regarding `Cc1noc(-c2ccnc(SCC(=O)Nc3cccc(C(F)(F)F)c3)c2)n1`, the RP-LC retention time is 933 s.

`CCOc1ccc(C(=O)N2CCCC2c2nc(-c3ccc(F)cc3F)no2)cc1` (centres undefined): the RP-LC retention time came to 1010 s.

Turning to `Cc1ccc(Sc2nccnc2N2CCCC(C(=O)NCC3CCCO3)C2)cc1` (centres undefined), the RP-LC retention time came out at 917 s.

In the case of `Cn1c(=O)sc2cc(S(=O)(=O)N3CCC(C(=O)Nc4cccc(F)c4)CC3)ccc21`, the RP-LC retention time stood at 885 s.

`CS(=O)(=O)N(Cc1cccnc1)C1CN(Cc2ccc(F)c(F)c2)C1` showed an RP-LC retention time of 571 s.

For the compound `CCCN1CCN(C(=O)C(C)n2nc(C)c3nn(-c4ccccc4)c(-n4cccc4)c3c2=O)CC1` (centres undefined), the RP-LC retention time was found to be 692 s.

For `CCn1ccc2sc(C)c(C(=O)NCc3cccc(OC)c3)c2c1=O`, the RP-LC retention time amounted to 785 s.

For the compound `CCOc1ccccc1NC(=O)N1CCC2(C1)C(=O)Nc1ccc(OC)cc12` (centres undefined), the RP-LC retention time was found to be 810 s.

For `Cc1nn(C)c(=O)c2cc(S(=O)(=O)NC(C)c3ccccc3)cn12` (centres undefined), the RP-LC retention time came to 801 s.

The compound `Cc1cc(-c2nnc(-c3ccccc3)o2)c(C)n1CC(=O)N1CCN(c2ccccn2)CC1` had an RP-LC retention time of 649 s.

The compound `Cc1nc(N2CCN(CCO)CC2)nc2c1C(=O)CC(c1cccc(Cl)c1)C2` (centres undefined) displayed an RP-LC retention time of 693 s.

As for `Cc1ccc2nc(NC(=O)C3CCN(S(=O)(=O)c4cn(C(C)C)cn4)CC3)sc2c1`, the RP-LC retention time worked out at 849 s.

In the case of `Cc1nn(CC(=O)NCCN2CCN(Cc3ccccc3)CC2)c(=O)c2noc(C)c12`, the RP-LC retention time was determined as 576 s.

In turn, `CCn1cc(S(=O)(=O)N2CC(F)(F)C[C@H]2COc2cccnc2)cn1` yielded an RP-LC retention time of 636 s.

`O=C(Nc1nnc(C2CC(=O)N(c3ccccc3)C2)o1)c1cccc(F)c1` (centres undefined) returned an RP-LC retention time of 711 s.

Consider `CCCCc1ccc(Nc2c(C(=O)N3CCSCC3)cnc3nc(C)ccc23)cc1`, for which the RP-LC retention time was determined as 723 s.

`Cn1nc(C(=O)N2CCN(c3ccccc3Cl)CC2)ccc1=O`: the RP-LC retention time is 727 s.

`COc1ccc(-n2c(CN3CCN(C(=O)NC(C)C)CC3)nc3cccnc32)cc1`: the RP-LC retention time came out at 595 s.

`CCn1c(N2CCC(C(=O)NC3CCCCC3)CC2)cc(=O)n(C)c1=O` gave an RP-LC retention time of 784 s.

`O=S(=O)(NCC(c1cccnc1)c1c[nH]c2ccccc12)c1ccc(Cl)c(Cl)c1` (centres undefined): the RP-LC retention time came to 787 s.

Take `Cn1cnc(S(=O)(=O)N2CCC(Cc3nncn3Cc3ccccc3)C2)c1` (centres undefined): the RP-LC retention time came to 614 s.

`CCOC(=O)c1c(C)oc2nc(C)nc(Nc3cc(C)ccc3OC)c12` registered an RP-LC retention time of 1350 s.

`O=C(Nc1ccccc1Br)c1cnc(-c2ccccc2)nc1-c1ccncc1` registered an RP-LC retention time of 927 s.

With `COc1ccc(NC(=O)N2c3ccccc3CC2c2nc(C(C)C)no2)c(OC)c1` (centres undefined), the RP-LC retention time was 1080 s.

The compound `CCCn1nnc(NCc2ccc(-c3ccc(C)c(Cl)c3)o2)n1` came in with an RP-LC retention time of 1130 s.

Turning to `Cc1ccc(NC(=O)Cc2c(C)nn(-c3nc(-c4ccc(Cl)cc4)cs3)c2C)cc1C`, the RP-LC retention time came to 852 s.

`Cc1ccc(-c2cc(NC(=O)C3CC3)on2)s1` returned an RP-LC retention time of 869 s.

The compound `Cc1ccc(-n2cc3c(N4CCCC(C(=O)NC(C)c5ccc(C)cc5C)C4)ncnc3n2)cc1` (centres undefined) yielded an RP-LC retention time of 814 s.

For the compound `CCn1c(CNC(=O)C2CCC2)nc2c1CN(S(=O)(=O)c1ccc(Cl)cc1)CC2`, the RP-LC retention time worked out at 692 s.
